The record followed here is US9757379B2, “Inhibition of HIF-2α heterodimerization with HIF1β (ARNT)” (The Board of Regents of the University of Texas System, priority 2012, dated 2017).

“Also recorded” adds a separate entry of the source. Where two headings read alike, the source gives them in different places.

What is called Kd is the free concentration of one partner at which half of the binding sites on the other are occupied at equilibrium, for simple one-to-one binding. In general, IC50 refers to the point on the concentration scale where inhibition reaches its midpoint.

The target in one series is HIF-2α PAS-B (Homo sapiens, UniProt Q99814). The series can be described thus: Isothermal titration calorimetry (ITC) on HIF-2α PAS-B.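 Note: Wild-type protein (200 µM) titrated into 5-10 µM compound, heats of dilution from a compound-free titration subtracted, isotherms fit to a single-site model.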 For orientation: Isothermal titration calorimetry measures the heat released or taken up as one component is titrated into another.
Chain of HIF-2α PAS-B (Q99814 240-350): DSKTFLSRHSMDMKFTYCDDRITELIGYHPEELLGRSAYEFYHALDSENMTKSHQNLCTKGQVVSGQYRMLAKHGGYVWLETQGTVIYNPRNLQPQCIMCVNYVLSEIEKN
The next series addresses GST-ARNT-PAS-B*-FLAG (Homo sapiens, UniProt P27540, E362R). Kind of series: AlphaScreen control reaction with doubly tagged protein. The series is classed as biochemical. The following applies: single doubly tagged protein.
In series [1] the target is HIF-2α PAS-B*/ARNT PAS-B* heterodimer (Homo sapiens, UniProt Q99814, R247E). Kind of series: AlphaScreen, HIF-2α PAS-B*/ARNT PAS-B* heterodimerization.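 For all read-outs here: GST-tagged HIF-2α PAS-B* and FLAG-tagged ARNT PAS-B* with glutathione donor and anti-FLAG acceptor beads, luminescence after 680 nm excitation, loss of signal indicating disrupted heterodimer.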 The following applies: for Effect on HIF-2α/ARNT PAS-B* heterodimerization in AlphaScreen: triplicate. In general terms: In Alpha technology, singlet oxygen from a donor bead excites a nearby acceptor bead.
Chain of HIF-2α PAS-B*/ARNT PAS-B* heterodimer (Q99814 240-350 R247E, one chain of several): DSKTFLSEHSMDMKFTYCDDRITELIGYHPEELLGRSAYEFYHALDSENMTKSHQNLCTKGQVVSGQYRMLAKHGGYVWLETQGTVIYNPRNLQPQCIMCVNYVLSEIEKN
Excerpt: (FIG. 8a) As shown in the cartoon schematic, interactions between GST-tagged HIF-2α (green) and FLAG-tagged ARNT (blue) PAS-B* domains recruit both donor beads (D), coated with glutathione, and acceptor beads (A), coated with anti-FLAG antibodies, to one another. Upon illumination with red (680 nm) light, donor beads will generate short-lived singlet oxygen (^1O2). Nearby (<200 nm) acceptor beads can react with ^1O2 to emit light at shorter wavelengths (top). Compounds that disrupt the complex correspondingly eliminate this signal (bottom). Compounds that non-specifically interfere with the AlphaScreen assay can be identified with a counterscreen in which the ARNT PAS-B* domain was simultaneously tagged with both the GST and FLAG tags. (FIG. 8b) The AlphaScreen signal (relative units; RU) reflecting protein-protein interactions between 25 (open triangles), 50 (open circles) or 100 (closed circles) nM HIF-2α PAS-B* increases with increasing concentrations of ARNT PAS-B*. At the highest ARNT PAS-B* concentrations, a decrease in signal reflects the hook effect. At these concentrations, protein binding to the acceptor beads has become saturated and free ARNT PAS-B* competes with the coated acceptor beads for the donor beads bound to HIF-2α PAS-B*. […] Assays were performed in triplicate and the error bars represent±SD.
Inhibition of heterodimerization of HIF-2α to HIF1β (ARNT) may be determined in an Amplified Luminescent Proximity Homogeneous Assay (AlphaScreen).
The AlphaScreen assay can be done according to the following procedures: • 1. Prepare cold binding buffer solution: 20 mM Tris-Cl (pH=7.5), 100 mM NaCl, 1 mM DTT, 0.02% Tween-20 (final concentration) and place on ice to keep temperature approximately 4° C. • 2. Prepare Protein Mix: To a 50 mL conical tube add 23 mL of cold buffer and 0.04 mL of both GST-HIF2α PASB* (100 μM) and ARNT-PASB*-Flag (100 μM). • 3. Distribute to 96 well plate: Add 60 μL of protein mix to each wells. • 4. Adding Compound: Dissolve compounds in DMSO to obtain a final concentration of 10 mM. Then create the appropriate dilutions for your particular compound in glass vials. Once all the dilutions are ready place 1 μL of compound in each well. • 5. Prepare Bead mix: In the dark room using green light only create a tube with 3.84 mL of cold buffer and 3 μL of GST Donor beads and Flag acceptor beads. • 6. Distribute Bead mix: Invert the tube a couple times before distributing 40 μL of mix to each well. • 7. Incubation: After adding beads wrap the plate in tin foil twice and remove the covered plate from dark room. Incubate the plate at room temperature while rocking gently for 4 hours. • 8. Read: After 4 hours place the uncovered plate in the plate reader. Make sure the room is relatively tree of white light when placing the plate in the machine. It is ok to have the green light on if needed. • 9. […] Flag acceptor beads should be aliquoted into small opaque tubes (20-50 μl per tube) upon arrival from the manufacturer. Place both sets of beads in 4° C. storage when not in use. • 11. Avoid expose beads to white light. • 12. Pipette beads up and down several times before adding to a tube of cold buffer solution. • 13. Amount of Beads used for Bead mix may vary from batch to batch.
Series [2] relates to HIF-2α. Kind of series: ChIP, HIF-2α DNA binding in cultured cells. The series is classed as cell-based, human. The following applies: 10 μM, hypoxic conditions. The method, then:
(§1) Chromatin immunoprecipation (ChIP) using antibodies raised against HIF-1α or HIF-2α was used to measure HIF DNA binding in cultured cells.
(§2) Proc Natl Acad Sci USA 106, 4260-4265 (2009) using the ChIP-IT Express Enzymatic Kit (Active Motif) according to the manufacturer's protocol. ChIP assays were carried out using normal mouse IgG (Santa Cruz Biotechnology), anti-HIF-2α mouse monoclonal antibody (Novus Biologicals), or anti-HIF-1α mouse monoclonal antibody (BD Biosciences). The precipitated genomic DNA was analyzed by qPCR using the primers for a human EPO enhancer amplicon ([…]; […]). The captured genomic DNA was measured by normalizing with that of input material and compared between sample.

Series [3] relates to VEGF. Kind of series: VEGF protein secretion by ELISA, 786-O cells. The format is cell-based, human. The following applies: about 18 hours, 0.00655-20 μM. The method, then: VEGF protein secretion was measured by ELISA following incubation of cultured 786-O cells for about eighteen (18) hours with Compund (1) (FIG. 19a) or with Compound (47) (FIG. 19b).
Background: ELISA stands for enzyme-linked immunosorbent assay.

Series [4] relates to HIF-2α. The series can be described thus: HIF-2α expression in 786-0 cells (RT-PCR, immunoblot). The format is cell-based, human. The following applies: normoxic 786-0 cells. From the text: (§3) 786-0 cells, derived from a human renal cell carcinoma, lack functional pVHL and constitutively accumulate HIF-2α under normoxic conditions. These cells also lack detectable HIF-1α expression so that HIF-dependent regulation of target genes is attributable to HIF-2α isoform.

For series [5], the system named is VEGF. Kind of series: HIF-2 target gene (VEGF) expression in 786-0 cells, RT-PCR. The format is cell-based, human. The following applies: 18 hr.
Excerpt: as §3

The next series deals with T1, HIF-1α (Homo sapiens, UniProt Q16665).
T1 construct: endogenous in cells
T1 sequence (Q16665 whole entry): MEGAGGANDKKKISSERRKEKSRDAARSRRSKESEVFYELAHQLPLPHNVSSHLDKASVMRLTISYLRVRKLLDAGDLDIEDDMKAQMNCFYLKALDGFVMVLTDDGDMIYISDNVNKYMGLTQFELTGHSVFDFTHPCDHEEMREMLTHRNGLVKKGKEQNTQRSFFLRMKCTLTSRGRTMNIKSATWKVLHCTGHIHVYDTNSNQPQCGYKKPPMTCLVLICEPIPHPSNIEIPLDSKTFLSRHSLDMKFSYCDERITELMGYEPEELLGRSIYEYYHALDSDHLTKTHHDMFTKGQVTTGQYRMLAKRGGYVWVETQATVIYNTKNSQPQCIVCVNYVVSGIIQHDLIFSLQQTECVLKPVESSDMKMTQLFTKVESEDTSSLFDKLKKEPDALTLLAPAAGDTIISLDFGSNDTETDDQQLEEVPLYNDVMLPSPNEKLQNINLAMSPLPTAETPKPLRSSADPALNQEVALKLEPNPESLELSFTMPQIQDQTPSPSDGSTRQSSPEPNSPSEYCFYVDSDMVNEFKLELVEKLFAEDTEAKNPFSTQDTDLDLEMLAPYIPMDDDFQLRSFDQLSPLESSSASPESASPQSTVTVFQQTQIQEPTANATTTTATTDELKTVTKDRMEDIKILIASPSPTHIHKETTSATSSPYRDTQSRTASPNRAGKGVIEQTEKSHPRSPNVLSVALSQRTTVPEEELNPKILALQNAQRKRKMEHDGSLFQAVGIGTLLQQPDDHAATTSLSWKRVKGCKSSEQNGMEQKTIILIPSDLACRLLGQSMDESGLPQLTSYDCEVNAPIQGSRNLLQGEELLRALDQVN
T1 sequence (P27540 2-789 partner limits assumed): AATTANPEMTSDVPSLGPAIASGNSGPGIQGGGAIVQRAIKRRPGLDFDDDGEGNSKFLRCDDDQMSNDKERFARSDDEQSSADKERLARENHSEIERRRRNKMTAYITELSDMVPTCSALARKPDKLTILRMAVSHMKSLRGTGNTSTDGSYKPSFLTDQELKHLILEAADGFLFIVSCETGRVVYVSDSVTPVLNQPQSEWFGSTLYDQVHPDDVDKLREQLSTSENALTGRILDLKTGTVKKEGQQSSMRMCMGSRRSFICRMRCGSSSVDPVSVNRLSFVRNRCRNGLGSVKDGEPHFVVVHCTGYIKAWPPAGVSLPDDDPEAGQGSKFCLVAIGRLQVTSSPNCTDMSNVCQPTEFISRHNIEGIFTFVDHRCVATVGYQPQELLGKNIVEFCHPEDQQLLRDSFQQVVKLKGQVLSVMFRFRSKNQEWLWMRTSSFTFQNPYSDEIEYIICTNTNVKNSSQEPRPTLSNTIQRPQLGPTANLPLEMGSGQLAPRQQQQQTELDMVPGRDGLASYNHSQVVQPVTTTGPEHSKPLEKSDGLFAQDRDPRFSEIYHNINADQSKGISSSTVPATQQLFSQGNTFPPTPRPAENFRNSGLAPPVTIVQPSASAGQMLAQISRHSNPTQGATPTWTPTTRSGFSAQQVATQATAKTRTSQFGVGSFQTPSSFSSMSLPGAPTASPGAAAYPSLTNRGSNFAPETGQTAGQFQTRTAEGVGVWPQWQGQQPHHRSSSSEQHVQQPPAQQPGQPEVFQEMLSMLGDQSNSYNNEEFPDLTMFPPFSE
The series can be described thus: ChIP, HIF-1α DNA binding in cultured cells. The format is cell-based. The following applies: 10 μM, hypoxic conditions. The protocol: as §1, §2

In another series the target is HIF-1α PAS-B (Homo sapiens, UniProt Q16665). Kind of series: Isothermal titration calorimetry (ITC) on HIF-1α PAS-B. The format is binding. The following applies: same conditions as for HIF-2α PAS-B. From the text: (§4) Ensuing allosteric conformational changes propagate to the surface of the domain, weakening interactions with the ARNT PAS-B domain and disrupting heterodimerization of the full length HIF-2 transcription factor.
Chain of HIF-1α PAS-B (Q16665 238-349): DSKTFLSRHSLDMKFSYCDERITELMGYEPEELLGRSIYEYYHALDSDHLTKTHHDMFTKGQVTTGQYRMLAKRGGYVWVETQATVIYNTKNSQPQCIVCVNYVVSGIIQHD

A further series has as its system PGK1. The series can be described thus: PGK1 mRNA expression in Hep3B cells (HIF-1α marker). The series is classed as cell-based. The following applies: 1 or 10 μM, hypoxic (1% O2) 6 or 12 hr.
In a further series the test system is 786-0 cells. The series can be described thus: Cell viability, ATP levels by Cell Titer Glo. The format is cell-based, human. The following applies: 24 hr, as much as 30 μM. The method, then:
Assays were performed in triplicates and the error bars represent±SD.
as §3

Series [6] concerns the target T2, full length HIF-2α and ARNT (Homo sapiens, UniProt Q99814).
T2 construct: heterodimerization between full length HIF-2α and ARNT polypeptides; endogenous in cells; host or cells: Hep3B (hypoxic), nuclear extracts
Kind of series: Co-IP of HIF-2α with ARNT, nuclear extracts of hypoxic Hep3B cells. The following applies: increasing concentrations. The series is classed as biochemical.
Experimental: An antibody recognizing the N-terminus of ARNT, was used to immunoprecipitate (IP) the endogenous ARNT protein from the nuclear extracts (FIG. 17 b; top panel).
Co-IP: Nuclear protein extraction and co-IP experiments were performed as reported in Semenza, G. L. Hypoxia-inducible factors: mediators of cancer progression and targets for cancer therapy. […] The following antibodies were used for immunoblot analysis: anti-HIF-1α mouse monoclonal antibody (BD Biosciences); anti-EPAS/HIF-2α mouse monoclonal antibody (Novus Biological); anti-ARNT/HIF-1β mouse monoclonal antibody (Novus Biological).

A further series has as its system HIF-2α or HIF-1α mRNA. Kind of series: HIF-1α and HIF-2α mRNA levels in Hep3B cells, RT-PCR. The series is classed as cell-based.
The target of the next series is T3, HIF-1 heterodimerization (Homo sapiens, UniProt Q16665).
T3 construct: Nuclear extracts prepared from hypoxic Hep3B cells expressing ARNT, HIF-1α, and HIF-2α (input); endogenous in cells; host or cells: Hep3B (hypoxic), nuclear extracts
T3 sequence (Q16665 whole entry): as the sequence (Q16665 whole entry) above
T3 sequence (P27540 2-789 partner limits assumed): as the sequence (P27540 2-789 partner limits assumed) above
The series can be described thus: Co-IP of HIF-1α with ARNT, nuclear extracts of hypoxic Hep3B cells. The following applies: increasing amounts. The series is classed as biochemical.
Excerpt: as §4

The subject of the next series is EPO. Kind of series: EPO mRNA expression in Hep3B cells (HIF-2α marker). The series is classed as cell-based. The following applies: 1 or 10 μM, hypoxic (1% O2) 6 or 12 hr.

Chain of GST-ARNT-PAS-B*-FLAG (P27540 355-470 E362R): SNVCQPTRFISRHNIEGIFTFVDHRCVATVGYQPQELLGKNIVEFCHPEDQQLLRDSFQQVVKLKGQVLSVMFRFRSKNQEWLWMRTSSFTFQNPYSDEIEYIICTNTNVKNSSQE
T2 sequence (Q99814 whole entry): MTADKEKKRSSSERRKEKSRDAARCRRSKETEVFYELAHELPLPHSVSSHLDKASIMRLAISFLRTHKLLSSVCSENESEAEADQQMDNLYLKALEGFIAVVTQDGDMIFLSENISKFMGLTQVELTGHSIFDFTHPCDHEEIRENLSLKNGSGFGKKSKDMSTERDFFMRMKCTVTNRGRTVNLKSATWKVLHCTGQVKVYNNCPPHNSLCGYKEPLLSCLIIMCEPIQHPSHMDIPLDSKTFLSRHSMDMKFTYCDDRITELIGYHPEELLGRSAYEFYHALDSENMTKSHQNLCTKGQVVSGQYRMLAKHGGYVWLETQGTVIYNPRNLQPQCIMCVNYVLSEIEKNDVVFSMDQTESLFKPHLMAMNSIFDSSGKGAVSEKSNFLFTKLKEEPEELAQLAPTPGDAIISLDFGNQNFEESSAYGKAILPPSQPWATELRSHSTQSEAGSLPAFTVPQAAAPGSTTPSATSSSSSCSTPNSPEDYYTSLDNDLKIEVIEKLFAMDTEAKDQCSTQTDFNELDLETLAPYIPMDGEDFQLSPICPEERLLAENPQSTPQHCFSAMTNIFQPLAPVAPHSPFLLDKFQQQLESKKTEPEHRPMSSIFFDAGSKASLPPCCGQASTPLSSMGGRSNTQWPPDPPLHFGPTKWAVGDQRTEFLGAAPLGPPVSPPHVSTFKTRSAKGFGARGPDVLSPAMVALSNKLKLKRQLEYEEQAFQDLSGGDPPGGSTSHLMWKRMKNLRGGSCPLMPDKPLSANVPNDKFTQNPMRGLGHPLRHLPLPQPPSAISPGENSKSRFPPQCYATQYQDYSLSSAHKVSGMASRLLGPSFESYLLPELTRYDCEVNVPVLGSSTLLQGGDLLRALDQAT
Excerpt for GST-ARNT-PAS-B*-FLAG: Upon illumination with red (680 nm) light, donor beads will generate short-lived singlet oxygen (^1O2). Nearby (<200 nm) acceptor beads can react with ^1O2 to emit light at shorter wavelengths (top). Compounds that disrupt the complex correspondingly eliminate this signal (bottom). Compounds that non-specifically interfere with the AlphaScreen assay can be identified with a counterscreen in which the ARNT PAS-B* domain was simultaneously tagged with both the GST and FLAG tags. […] At these concentrations, protein binding to the acceptor beads has become saturated and free ARNT PAS-B* competes with the coated acceptor beads for the donor beads bound to HIF-2α PAS-B*. […] Assays were performed in triplicate and the error bars represent±SD.

As for `O=[N+]([O-])c1cc(Nc2ccc3nonc3c2[N+](=O)[O-])ccc1Cl` [Compound 32], on HIF-2α PAS-B (read-out: ITC Kd), the equilibrium dissociation constant (Kd) is 1100 nM. Besides, at GST-ARNT-PAS-B*-FLAG, the “Effect on AlphaScreen signal of control reaction” value was “No effect”. For the same compound, in series [1], the IC50 was determined as 200 nM and the “Effect on HIF-2α/ARNT PAS-B* heterodimerization in AlphaScreen” value was “antagonizes HIF-2α/ARNT PAS-B* heterodimerization”.

Regarding `Clc1ccccc1[C@@H]1C[C@H](c2cccc(Br)c2)Nc2nnnn21` (racemic) [Compound 51, (+/−)-(cis)-5-(3-bromophenyl)-7-(2-chlorophenyl)-4,5,6,7-tetrahydrotetrazolo[1,5-a]pyrimidine], binding on HIF-2α PAS-B was put at a Kd of 435 nM. The compound further returned an IC50 in series [1] of 300 nM.

Regarding `O=[N+]([O-])c1c(Nc2cc(F)cc(Cl)c2)ccc2nonc12` [Compound 1, N-(3-chloro-5-fluorophenyl)-4-nitrobenzo[c][1,2,5]oxadiazol-5-amine], in the series with HIF-2α [2], the “HIF-2α DNA-binding activity (ChIP)” value was “substantially decreased; also recorded: selectively disrupts”. Besides, in the series on VEGF [3], the VEGF protein secretion result is listed as “reduce VEGF protein secretion in a dose-dependent manner”. In addition, the “Effect on HIF-2α expression (mRNA, protein)” value in the series on HIF-2α [4] was “does not alter; also recorded: no effect”. Further, the “Expression of HIF-2 target gene (VEGF)” value in the series with VEGF [5] was “reduced in a dose-dependent manner; also recorded: antagonized”. For the same compound, the “HIF-1α DNA-binding activity (ChIP)” value on HIF-1α is recorded as “unaffected”. On HIF-1α PAS-B, the “ITC protein-ligand interaction, HIF-1α PAS-B” value is “effectively does not bind; also recorded: does not show detectable protein-ligand interaction” and the Kd was over 5 µM. In the series with PGK1, the “Expression of PGK1” value is on record as “no effect”. Besides, the “Toxicity to cultured cells (ATP levels as cell viability)” value with 786-0 cells is reported as “No overt toxicity; also recorded: not overtly toxic”. Further, in series [6], the “Heterodimerization of full length HIF-2 transcription factor (co-IP)” value is reported as “disrupts heterodimerization”. The “Effect on AlphaScreen signal of control reaction” value at GST-ARNT-PAS-B*-FLAG is “No effect”. The “HIF-1α and -2α mRNA levels” value in the series with HIF-2α or HIF-1α mRNA was “no effect”. The “Effect on HIF-1 heterodimerization by Co-IP” value at HIF-1 heterodimerization was “little effect”. Further, in series [1], the midpoint of inhibition, the IC50, lay at 100 nM and the “Effect on HIF-2α/ARNT PAS-B* heterodimerization in AlphaScreen” value was “blocks heterodimer assembly”. In addition, in the series with EPO, the “Hypoxic induction of EPO mRNA” value is “antagonized”.

In turn, `O=[N+]([O-])c1c(Nc2ccc(Br)c(F)c2)ccc2nonc12` [Compound 7] had a Kd on HIF-2α PAS-B of 220 nM. In series [1], this compound yielded an IC50 of 150 nM.

`Clc1ccc(Br)cc1[C@H]1C[C@@H](c2cccc(Br)c2)Nc2nnnn21` [Compound 60, (5S,7R)-7-(5-bromo-2-chlorophenyl)-5-(3-bromophenyl)-4,5,6,7-tetrahydrotetrazolo[1,5-a]pyrimidine] gave a Kd at HIF-2α PAS-B of 192 nM. The IC50 in series [1] is 400 nM.

At HIF-2α PAS-B, `O=[N+]([O-])c1c(Nc2cc(F)cc(F)c2)ccc2nonc12` [Compound 11, N-(3,5-difluorophenyl)-4-nitrobenzo[c][1,2,5]oxadiazol-5-amine] yielded a Kd of 2100 nM. Besides, the IC50 in series [1] is over 1000 nM.

The compound `Fc1ccc(Cl)c(F)c1[C@@H]1C[C@H](c2cccc(Br)c2)Nc2nnnn21` (racemic) [Compound 61, (+/−)-(cis)-5-(3-bromophenyl)-7-(3-chloro-2,6-difluorophenyl)-4,5,6,7-tetrahydrotetrazolo[1,5-a]pyrimidine] displayed a Kd at HIF-2α PAS-B of 32 nM. This compound displayed an IC50 in series [1] of 200 nM.

`Nc1c(Nc2cc(F)cc(Cl)c2)ccc2nonc12` [Compound 39] yielded a Kd on HIF-2α PAS-B of about 6000 nM. Moreover, the IC50 in series [1] was over 30000 nM.

For `O=[N+]([O-])c1c(Nc2cccc(C(F)(F)F)c2)ccc2nonc12` [Compound 6, 4-nitro-N-(3-(trifluoromethyl)phenyl)benzo[c][1,2,5]oxadiazol-5-amine], on HIF-2α PAS-B (read-out: ITC Kd), the Kd came out at 640 nM. In series [1], 460 nM corresponded to half-maximal inhibition (IC50).

Take `Brc1cccc([C@H]2C[C@@H](c3ccccc3I)n3nnnc3N2)c1` (racemic) [Compound 55, (+/−)-(cis)-5-(3-bromophenyl)-7-(2-iodophenyl)-4,5,6,7-tetrahydrotetrazolo[1,5-a]pyrimidine]: the Kd at HIF-2α PAS-B stood at 862 nM. Further, half-maximal inhibition in [1] (IC50) was put at 600 nM.

For the compound `Fc1cc(Br)cc([C@@H]2C[C@H](c3cccc(Br)c3)n3nnnc3N2)c1` [Compound 47, (5S,7R)-5-(3-Bromo-5-fluorophenyl)-7-(3-bromophenyl)-4,5,6,7-tetrahydrotetrazolo[1,5-a]pyrimidine], the VEGF protein secretion result with VEGF [3] is on record as “reduce VEGF protein secretion in a dose-dependent manner”. In addition, the Kd at HIF-2α PAS-B was found to be 83 nM. The same compound returned an IC50 in series [1] of 100 nM.
